# Structures can show the parent of a compound that is named as a salt. Where two headings read alike, the source gives them in different places.
# Columns and labels:
# ARPE-19 cells [1] = assay: tBHP-induced toxicity, MTT assay; details: 24 hours; for cell viability (maximum protection): 100 μg/mL of hydralazine, P<0.001
# Protocol: (§1) The human RPE cell line ARPE-19 (ATCC; Manassas, Va.) was cultured in Dulbecco's Modified Essential Medium (DMEM) supplemented with 10% fetal bovine serum, 50 units/mL penicillin-streptomycin and 2.5 mM glutamine at 37° incubation with 5% CO2. The cell line was not transformed and had structure and function properties characteristic of RPE in vivo. The cells were seeded into 96-well plates, and subconfluent cell monolayers were studied within 3 to 10 passages. Before starting the experimental procedures, the medium was removed and replaced with phenol red-free low-glucose DMEM supplemented with 1% calf serum, 0.06% glutamine, and 1% penicillin-streptomycin.
# (§2) The cells were used for experiments when they reached 80% confluence to prevent contact inhibition.
# (§3) After the 24-hour exposure, the MTT reagent solution (5 mg/mL) was added to each well in a ratio of 1:10 MTT reagent:culture medium volume. The cultures were incubated with the MTT reagent for 3 hours at 37° C. At the end of incubation, the MTT solution was removed, and 0.1 mL of dimethyl sulfoxide (DMSO) was added to each well to solubilize the purple formazan product. The proportion of viable cells was determined by measuring the optical density (OD) of each sample at 570 nm (A570) using a SpectraCount plate reader (Packard BioScience, Meridan, Conn.). The relationship between the OD readings in the MTT colorimetric assay and the exact cell number was determined by seeding cells at identical densities and then performing the MTT assay and manual hemocytometer cell counts on parallel replicate cultures. Trypan blue was added to the hemocytometer cultures so that only viable, dye-excluding cells were counted. This approach enabled the establishment of a standard curve for A570 versus cell number.
# (§4) All data were presented as mean±standard error. A nonpaired Student t test was performed to analyze the significance between 2 means at a certain time point. The differences were considered significant at P<0.05. Results for nitric oxide measurements were expressed in μM nitrite and nitrate per 1×10^6 cells.
# [2] = all subjects
# Description: Subjects in the dry AMD group had evidence of small and intermediate drusen, minimal or no pigment abnormalities in the macula (i.e., risk factor 2 on the AREDS Simplified Grading Scale), and a Snellen equivalent best corrected visual acuity (BCVA) equal to or better than 20/100.
# The patients received 1 drop of test material in one eye and vehicle control in the contra-lateral eye. The patients administered the first dose of each day in the clinical setting and self-administered the remaining two doses of the day at prescribed time points.
# On days 2 and 3, the evaluations were after the first two time-points. The 7th dose was administered in the morning on day 3. Seven days after the final dose, patients were contacted via telephone to evaluate any post study adverse events or issues.
# [3] = Protocol: Choroidal blood flow, velocity and volume were assessed following the first dosing of test material on each day. […] Measurements were made using a Laser Doppler Flowmetry device, which is a state-of-the-art, non-invasive and quantitative approach for visualizing and measuring subfoveal choroidal blood flow.
# There was a trend of increased mean choroidal blood volume and velocity values in hydralazine hydrochloride-treated eyes, which peaked approximately 2 hours after topical ocular dosing on day 1 and returned to baseline values approximately 4 hours after dosing (i.e., 2 hours later). […] By contrast, in normal/healthy subjects both mean values and associated standard deviations (SDs) remained low at all time points on day 1. • Odds ratio analyses of the choroidal blood flow outcomes between the AMD and Normal groups for day 1 were evaluated.
# [4] = 25° C., pH 3.5, cationic form; obtained by extrapolation
# Description: In one embodiment, the hydralazine for use in the formulation is a hydralazine salt such as hydralazine hydrochloride.
# rabbit eye = assay: 28-day repeat dose ocular toxicity; assay type: in vivo, Dutch Belted rabbits
# Protocol: Hydralazine hydrochloride ophthalmic solutions were prepared essentially as described in Example 1 at concentrations of 0.0% (vehicle), 0.5% hydralazine hydrochloride, 1.0% hydralazine hydrochloride, and 2.0% hydralazine hydrochloride. The formulation, vehicle or control was administered daily for 28 days to the designated eye of forty Dutch Belted rabbits (5 males and 5 females per group) as shown in Table 2. […]
# A modified Hackett and McDonald microscopic ocular grading system (Hackett 1996) was applied to ocular findings following the use of a slit-lamp biomicroscope, which included insertion of a blue filter to assess for fluorescein dye retention. For any evaluated microscopic ocular examination parameter, there were no statistically significant differences, in either male or female rabbits, between Group 1 and Groups 2-4 during the pre dose or Day 29 study measurement periods.
# Mean tonometry (Tono-pen; Reichert Ophthalmic Instruments, Depew, N.Y.) readings of IOP in control and test rabbits pre-dose and on Day 29 were between 15-25 mmHg, which is within the normal physiologic range. […]
# ARPE-19 cells [5] = details: 24 hours; for cell viability (maximum protection): P<0.001
# Protocol: as §1, §2, §3, §4
# [6] = system: Human Umbilical Vein Endothelial Cells (HUVEC); assay: In vitro tube formation; details: 100 μg/ml, 48 hours
# ARPE-19 cells [7] = details: NaN3 0.1-100 mM, hydralazine 1, 3, 10, 30, 100 μg/mL
# Protocol: RPE cells were washed and replaced with fresh DMEM-F12 medium containing various concentrations of NaN3 (0.1 mM-100 mM). […] Reactions were stopped by washing out the medium.
# ARPE-19 cells [8] = details: 1% O2, 1 μg/mL of hydralazine, P<0.001
# Protocol: In vitro hypoxia treatment was carried out using a ProOx hypoxia system. […] In hypoxia, oxygen concentrations of 1% O2 and 5% CO2 were maintained using a temperature- and humidity-controlled environmental C-chamber by O2 and CO2 controllers (ProOx Model 110 and ProCO2 Model 120; BioSpherix Ltd., Redfield, N.Y.) with N2 and CO2 gas sources. Reactions were stopped by washing out the medium, and 5 mg/mL MTT at a dilution of 1:10 based on the volume of culture medium was added for 3 hours at 37° C. At the end of incubation, the MTT solution was removed, and the cells were dissolved in 0.1 mL/well DMSO. The proportion viable cells were determined by measuring the OD of each sample at 570 nm using a SpectraCount plate reader (Packard BioScience, Meridan, Conn.).
# [9] = cited from earlier work; for systemic bioavailability: gastrointestinal absorption
structure (smiles),measurement,setting,value
"CC(C)(C)OO [tBHP, Tert-Butyl hydroperoxide]",cell viability,ARPE-19 cells [1]; 0.01 mM tBHP alone,89.90%±2.80%
same,cell viability,ARPE-19 cells [1]; 0.03 mM tBHP alone,55.80%±4.08%
"NNc1nncc2ccccc12 [hydralazine hydrochloride, Hydralazine hydrochloride]",average time to resolution of ocular hyperemia,[2]; range 1 to 4 days,1.85 days
same,"ocular hyperemia, treated eyes","[2]; hydralazine hydrochloride-treated eyes, 1 vehicle-treated eye",21 eyes
same,"odds ratio, choroidal blood volume outcome, AMD vs Normal group","[3]; day 1, 60 minute time point (p=0.337)",0.22
same,"odds ratio, choroidal blood volume outcome, AMD vs Normal group","[3]; day 1, 120 minute time point (p=0.106)",6.67
same,time of peak of mean choroidal blood volume and velocity,"[3]; day 1, after topical ocular dosing, back to baseline approximately 4 hours after dosing",approximately 2 hours
same,"choroidal blood flow, mean scores",[3]; treated eyes in AMD subjects,trend towards improved mean scores
same,rate constant (time with less than a 10% loss),[4],1.5 years
same,dose-related toxicologic changes,"rabbit eye; 28 days of daily topical ocular treatment, 0.5-2.0%, 40 μL",did not result in the development of significant doserelated toxicologic changes
same,ocular histopathology,rabbit eye; daily application of up to 2.0% for 28 days,"did not result in the development of ocular pathology, inflammation, degeneration, or histologic evidence of toxicity"
"OO [Formulation H2O2, hydrogen peroxide]",cell viability,ARPE-19 cells [5]; 0.3 mM H2O2 alone,48.74%±2.40%
same,cell viability,ARPE-19 cells [5]; 1.0 mM H2O2 alone,41.28%±0.80%
NNc1nncc2ccccc12 [hydralazine],cell viability (maximum protection),ARPE-19 cells [1]; insult 0.01 mM tBHP,109.99%±2.41%
same,cell viability (maximum protection),ARPE-19 cells [1]; insult 0.03 mM tBHP,100.84%±13.00%
same,effect on HUVEC,[6],caused apoptosis
same,effect on NaN3 chemically-induced hypoxia (viable cells),ARPE-19 cells [7],no significant effect
same,cell viability (maximum reversion),ARPE-19 cells [8]; 48 hours,101.21%±0.54%
same,cell viability (maximum reversion),ARPE-19 cells [8]; 72 hours,103.55%±1.75%
same,systemic clearance,[9]; exceeds hepatic blood flow,3 L/h/kg
same,systemic bioavailability,[9]; fast acetylators,16%
same,systemic bioavailability,[9]; slow acetylators,35%
same,plasma half-life,[9]; in vivo,3 to 7 h
same,time of peak concentration in plasma and maximal hypotensive effect,[9]; orally administered,30 to 120 min
same,cell viability (maximum protection),"ARPE-19 cells [5]; insult 0.3 mM H2O2 (second statement), 30 μg/mL of hydralazine",68.04%±0.67%
same,cell viability (maximum protection),"ARPE-19 cells [5]; insult 0.3 mM H2O2, 30 μg/mL of hydralazine",74.30% ±0.80%

# Source: patent US9694010B2, “Therapeutic formulation and methods of treatment” (MacuCLEAR, Inc., priority 2012, dated 2017)
